Measured values from US9440984B2, “Pyrrolotriazines as ALK inhibitors” (Cephalon, Inc., priority 2013, dated 2016).
Like-named read-outs stand apart in the source and are kept apart here.

Assays:
ALK [1] = molecular target: T1, ALK (Homo sapiens, UniProt Q9UM73); test: ALK autophosphorylation enzyme assay; assay type: biochemical
Target sequence in this assay (Q9UM73 19-1620): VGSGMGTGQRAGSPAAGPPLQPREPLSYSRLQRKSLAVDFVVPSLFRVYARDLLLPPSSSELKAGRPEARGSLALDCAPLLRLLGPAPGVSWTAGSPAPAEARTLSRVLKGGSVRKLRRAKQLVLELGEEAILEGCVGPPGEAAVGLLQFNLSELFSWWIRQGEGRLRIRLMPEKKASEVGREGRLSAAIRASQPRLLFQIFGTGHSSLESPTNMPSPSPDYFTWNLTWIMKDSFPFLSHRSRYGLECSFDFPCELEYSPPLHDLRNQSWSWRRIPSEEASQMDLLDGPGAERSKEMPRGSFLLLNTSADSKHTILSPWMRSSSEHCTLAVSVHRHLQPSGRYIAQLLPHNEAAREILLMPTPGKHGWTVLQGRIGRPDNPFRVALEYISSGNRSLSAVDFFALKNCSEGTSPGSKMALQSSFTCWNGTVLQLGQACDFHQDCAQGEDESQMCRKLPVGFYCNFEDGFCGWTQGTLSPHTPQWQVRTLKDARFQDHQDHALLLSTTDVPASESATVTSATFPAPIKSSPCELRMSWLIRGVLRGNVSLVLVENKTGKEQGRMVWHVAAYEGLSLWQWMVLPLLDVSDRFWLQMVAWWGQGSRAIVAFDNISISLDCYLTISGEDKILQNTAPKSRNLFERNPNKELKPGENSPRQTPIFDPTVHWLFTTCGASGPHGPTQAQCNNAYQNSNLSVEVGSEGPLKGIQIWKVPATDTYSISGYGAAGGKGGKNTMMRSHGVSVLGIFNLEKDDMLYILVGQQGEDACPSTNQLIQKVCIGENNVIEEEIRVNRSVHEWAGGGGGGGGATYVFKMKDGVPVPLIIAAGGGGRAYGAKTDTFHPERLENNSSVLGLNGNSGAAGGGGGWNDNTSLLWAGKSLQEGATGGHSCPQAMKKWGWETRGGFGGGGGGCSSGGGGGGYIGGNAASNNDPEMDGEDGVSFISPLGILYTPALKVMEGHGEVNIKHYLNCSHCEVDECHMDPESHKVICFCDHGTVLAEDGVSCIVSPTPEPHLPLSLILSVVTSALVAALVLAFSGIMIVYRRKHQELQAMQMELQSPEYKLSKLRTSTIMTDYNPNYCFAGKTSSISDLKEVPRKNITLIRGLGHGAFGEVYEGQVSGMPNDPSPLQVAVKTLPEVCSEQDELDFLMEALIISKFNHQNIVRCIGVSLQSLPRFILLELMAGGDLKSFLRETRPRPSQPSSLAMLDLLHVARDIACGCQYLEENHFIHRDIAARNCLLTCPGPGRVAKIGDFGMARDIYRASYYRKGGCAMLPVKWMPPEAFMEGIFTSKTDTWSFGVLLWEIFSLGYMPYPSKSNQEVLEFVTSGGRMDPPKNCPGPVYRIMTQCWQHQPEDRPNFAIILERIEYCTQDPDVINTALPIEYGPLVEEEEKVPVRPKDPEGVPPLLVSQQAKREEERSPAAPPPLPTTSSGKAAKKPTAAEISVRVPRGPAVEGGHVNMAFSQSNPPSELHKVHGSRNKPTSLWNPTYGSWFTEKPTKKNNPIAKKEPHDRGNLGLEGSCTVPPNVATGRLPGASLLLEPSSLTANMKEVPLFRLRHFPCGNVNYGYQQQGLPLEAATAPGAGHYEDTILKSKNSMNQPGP

ALK [2] = molecular target: T1, ALK; test: ALK autophosphorylation cellular assay; assay type: cell-based; conditions: read-out: ALK Cell IC50
Target sequence in this assay (Q9UM73 with tags, fused parts or gaps): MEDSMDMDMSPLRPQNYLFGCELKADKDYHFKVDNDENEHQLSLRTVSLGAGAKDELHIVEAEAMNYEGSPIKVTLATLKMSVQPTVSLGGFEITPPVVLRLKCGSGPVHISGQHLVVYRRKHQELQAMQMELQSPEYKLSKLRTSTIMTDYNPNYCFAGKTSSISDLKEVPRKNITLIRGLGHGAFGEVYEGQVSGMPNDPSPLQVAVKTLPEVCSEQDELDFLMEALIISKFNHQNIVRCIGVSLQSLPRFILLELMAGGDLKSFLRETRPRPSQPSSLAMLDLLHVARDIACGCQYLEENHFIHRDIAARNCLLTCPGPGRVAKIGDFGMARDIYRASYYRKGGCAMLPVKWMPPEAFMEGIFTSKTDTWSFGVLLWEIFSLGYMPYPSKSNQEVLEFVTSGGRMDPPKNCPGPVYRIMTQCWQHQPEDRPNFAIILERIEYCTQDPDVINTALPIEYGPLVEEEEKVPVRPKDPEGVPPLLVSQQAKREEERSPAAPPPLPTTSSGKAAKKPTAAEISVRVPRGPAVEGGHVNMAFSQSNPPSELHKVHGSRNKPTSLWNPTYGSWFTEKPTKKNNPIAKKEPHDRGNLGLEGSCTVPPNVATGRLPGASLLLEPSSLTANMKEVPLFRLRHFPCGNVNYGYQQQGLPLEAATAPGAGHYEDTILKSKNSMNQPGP

[3] = Rat pharmacokinetic (PK) studies
[4] = PK/PD study: compound levels in plasma and tumor lysates (LC/MS-MS); assay type: in vivo; conditions: Scid mice, single p.o. 30 mg/kg, 6 h and 16 h post dose
Source text: Exponentially growing cells were implanted subcutaneously to the left flank of each mouse. The mice were monitored and when the tumor xenograft volumes reached approximately 300 to 500 mm3, mice received a single oral administration of either vehicle PEG-400 or the compound of interest (e.g., Examples 14, 16, 16a, and/or 16b) formulated in vehicle. At indicated time points postdosing, the mice were sacrificed, the blood was collected and centrifuged, and the plasma was collected. The tumors were excised and disrupted with a hand-held tissue blender in completed FRAK lysis buffer without Triton X-100. After brief sonication, the lysates were cleared by centrifugation, mixed with sample buffer, and subjected to SDS-PAGE for ALK immunoblotting as described above. The individual bands of phospho- and total NPM-ALK were scanned and quantified with the Gel Pro Analyzer software (Media Cybernetics, Inc.). The relative NPM-ALK tyrosine phosphorylation (phospho-NPMALK/NPM-ALK ratio) of each sample at indicated time points was then calculated, with the average value of vehicle-treated sample(s) as 100. The compound levels in plasma and tumor lysates were measured by liquid chromatography/tandem mass spectrometry (LC/MS-MS).

Sup-M2 ALCL xenografts = assay type: in vivo; conditions: Scid mice, p.o., 10 days; for anti-tumor efficacy (tumor regression): Sup-M2 xenografts
Experimental: The length (L) and width (W) of each tumor was measured with a Vernier caliper and the mouse body weight was determined every 2 to 3 days. […] Statistical analyses of tumor volumes and mouse body weight were carried out using the Mann-Whitney rank sum test. Plasma and tumor samples were obtained at 2 hours post-final dose, and the compound levels in plasma and tumor lysates were measured by LC/MS-MS.

[5] = Sprague-Dawley rat, i.v., 1 mg/kg
[6] = Sprague-Dawley rat, p.o., 5 mg/kg
[7] = Sprague-Dawley, rat, in vivo, po, 5 mg/kg
[8] = Sprague-Dawley, rat, in vivo, iv, 1 mg/kg

## COCCN1CC[C@@H](c2ccc(Nc3ncc4ccc(-c5ccccc5OC)n4n3)c(OC)c2)[C@@H](O)C1 (racemic) [Example 1, (±)-3,4-cis-1-(2-Methoxy-ethyl)-4-{3-methoxy-4-[7-(2-methoxy-phenyl)-pyrrolo[2,1-f][1,2,4]triazin-2-ylamino]-phenyl}-piperidin-3-ol]
ALK [1]
  IC50: 3.33 nM
ALK [2]
  IC50: 50 nM

## COc1cc([C@@H]2CCNC[C@@H]2O)ccc1Nc1ncc2ccc(-c3cccnc3OC)n2n1 (racemic) [Example 4, (±)-3,4-cis-4-{3-Methoxy-4-[7-(2-methoxy-pyridin-3-yl)-pyrrolo[2,1-f][1,2,4]triazin-2-ylamino]-phenyl}-piperidin-3-ol]
ALK [1]
  IC50: 14 nM

## COc1cc([C@@H]2CCNC[C@H]2F)ccc1Nc1ncc2ccc(-c3ccccc3OC)n2n1 (racemic) [Example 5, (±)-[4-(3,4-trans-3-Fluoro-piperidin-4-yl)-2-methoxy-phenyl]-[7-(2-methoxy-phenyl)-pyrrolo[2,1-f][1,2,4]triazin-2-yl]-amine]
ALK [1]
  IC50: 5.66 nM

## COc1cc(C2CCN(CCO)CC2(F)F)ccc1Nc1ncc2ccc(-c3ccccc3OC)n2n1 (racemic) [Example 9, (±)-2-(3,3-Difluoro-4-{3-methoxy-4-[7-(2-methoxy-phenyl)-pyrrolo[2,1-f][1,2,4]triazin-2-ylamino]-phenyl}-piperidin-1-yl)-ethanol]
ALK [1]
  IC50: 28.2 nM

## COc1cc([C@@H]2CCN(CC(C)(C)O)C[C@H]2F)ccc1Nc1ncc2ccc(-c3cccnc3OC)n2n1 (racemic) [Example 10, (±)-1-(3,4-trans-3-Fluoro-4-{3-methoxy-4-[7-(2-methoxy-pyridin-3-yl)-pyrrolo[2,1-f][1,2,4]triazin-2-ylamino]-phenyl}-piperidin-1-yl)-2-methyl-propan-2-ol]
ALK [1]
  IC50: 25.2 nM

## COc1cc(C2CCN(CCO)CC2(F)F)ccc1Nc1ncc2ccc(-c3cccnc3OC)n2n1 (racemic) [Example 11, (±)-2-(3,3-Difluoro-4-{3-methoxy-4-[7-(2-methoxy-pyridin-3-yl)-pyrrolo[2,1-f][1,2,4]triazin-2-ylamino]-phenyl}-piperidin-1-yl)-ethanol]
ALK [1]
  IC50: 34 nM

## COc1cc(C2CCNCC2(F)F)ccc1Nc1ncc2ccc(-c3cccnc3OC)n2n1 (racemic) [Example 12, (±)-[4-(3,3-Difluoro-piperidin-4-yl)-2-methoxy-phenyl]-[7-(2-methoxy-pyridin-3-yl)-pyrrolo[2,1-f][1,2,4]triazin-2-yl]-amine]
ALK [1]
  IC50: 13.7 nM
ALK [2]
  IC50: 200 nM

## COc1cc([C@@H]2CCN(CCO)C[C@@H]2O)ccc1Nc1ncc2ccc(-c3ccccc3OC)n2n1 (racemic) [Example 14, (±)-3,4-cis-1-(2-Hydroxy-ethyl)-4-{3-methoxy-4-[7-(2-methoxy-phenyl)-pyrrolo[2,1-f][1,2,4]triazin-2-ylamino]-phenyl}-piperidin-3-ol]
[3]; [5]
  AUC0-∞: 371 ± 6 ng·h/mL
  CL: 46 ± 1 mL/min/kg
  Vd: 9.9 ± 2 L/kg
  t1/2: 2.5 ± 0.6 h
[3]; [6]
  AUC0-∞: 479 ± 83 ng·h/mL
  Cmax: 85 ± 15 ng/mL
  F %: 26 ± 4%
[3]; [7]
  Tmax: 6 h
[3]; rat
  rat PK properties (in words): acceptable rat PK properties

## COc1cc([C@@H]2CCN(CCO)C[C@H]2O)ccc1Nc1ncc2ccc(-c3ccccc3OC)n2n1 (racemic) [Example 16, (±)-3,4-trans-1-(2-Hydroxy-ethyl)-4-{3-methoxy-4-[7-(2-methoxy-phenyl)-pyrrolo[2,1-f][1,2,4]triazin-2-ylamino]-phenyl}-piperidin-3-ol]
[3]; [8]
  AUC(0-inf): 459 ± 72 ng·h/mL
  Vd: 10.3 ± 1.3 L/kg
  clearance: 39 ± 7 mL/min/kg
  half-life: 3.2 ± 0.6 h
[3]; [7]
  AUC(0-inf): 708 ± 63 ng·h/mL
  Cmax: 97 ± 10 ng/mL
  Tmax: 4 ± 1.2 h
  bioavailability: 31 ± 3%
[3]; rat
  rat PK properties (in words): acceptable rat PK properties

## COc1cc([C@H]2CCN(CCO)C[C@@H]2O)ccc1Nc1ncc2ccc(-c3ccccc3OC)n2n1 (single isomer, unassigned) [Example 16b]
[4]
  plasma and tumor levels, higher than with Example 16a: 4-10 fold
Sup-M2 ALCL xenografts; 30 mg/kg b.i.d.
  tolerability (body weight loss, overt toxicity): well tolerated
  anti-tumor efficacy (tumor regression): Complete tumor regressions
Sup-M2 ALCL xenografts; 55 mg/kg b.i.d.
  tolerability (body weight loss, overt toxicity): well tolerated
  anti-tumor efficacy (tumor regression): Complete tumor regressions

## COc1cc(C2CCN(CCO)CC2)ccc1Nc1ncc2ccc(-c3ccccc3OC)n2n1 [Example 18, 2-(4-{3-Methoxy-4-[7-(2-methoxy-phenyl)-pyrrolo[2,1-f][1,2,4]triazin-2-ylamino]-phenyl}-piperidin-1-yl)-ethanol]
ALK [1]
  IC50: 3 nM
ALK [2]
  IC50: 150 nM
